Data as given in PubChem BioAssay (NCI).
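Protocol summary: plate cells (96-well), add compound at 5 concentrations, incubate 48 h, interpolate endpoints linearly. At the GI50, growth is halved. The concentration for full growth arrest is given as TGI.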

What was measured:
Experiment in all cases: NCI-60 cell line screen, 48 h
SK-MEL-5 melanoma = tested on: SK-MEL-5 melanoma
HCT-15 colon = tested on: HCT-15 colon
KM12 colon = tested on: KM12 colon
M14 melanoma = tested on: M14 melanoma
HOP-62 NSCLC = tested on: HOP-62 NSCLC
SW-620 colon = tested on: SW-620 colon
OVCAR-4 ovarian = tested on: OVCAR-4 ovarian
OVCAR-3 ovarian = tested on: OVCAR-3 ovarian
HL-60(TB) leukemia = tested on: HL-60(TB) leukemia
BT-549 breast = tested on: BT-549 breast

| SMILES | TGI (SK-MEL-5 melanoma) [µM] | TGI (HCT-15 colon) [µM] | TGI (KM12 colon) [µM] | TGI (M14 melanoma) [µM] | TGI (HOP-62 NSCLC) [µM] | TGI (SW-620 colon) [µM] | TGI (OVCAR-4 ovarian) [µM] | TGI (OVCAR-3 ovarian) [µM] | TGI (HL-60(TB) leukemia) [µM] | TGI (BT-549 breast) [µM] | GI50 (SK-MEL-5 melanoma) [µM] | GI50 (M14 melanoma) [µM] | GI50 (HOP-62 NSCLC) [µM] | GI50 (HL-60(TB) leukemia) [µM] | GI50 (BT-549 breast) [µM] | GI50 (HCT-15 colon) [µM] | GI50 (SW-620 colon) [µM] | GI50 (OVCAR-4 ovarian) [µM] | GI50 (OVCAR-3 ovarian) [µM] |
| --- | --- | --- | --- | --- | --- | --- | --- | --- | --- | --- | --- | --- | --- | --- | --- | --- | --- | --- | --- |
| Cc1cn2c(C)csc2c1P(=O)(OC(C)C)OC(C)C | > 100 | > 100 | > 100 | > 100 | > 100 | > 100 | > 100 | > 100 | > 100 | > 100 | – | – | – | – | – | – | – | – | – |
| COC(=O)c1cc(C)ccc1CC(Cc1ccc(C)cc1)C(=O)OC (stereo unspecified) | 12.6 | > 77.9 | > 100 | > 100 | > 100 | > 100 | > 100 | > 100 | > 29.1 | > 100 | – | – | – | – | – | – | – | – | – |
| COC(=O)C1=C(C)NC(C)=C([N+](=O)[O-])C1c1cccc(N=O)c1 (stereo unspecified) | 29.6 | 29.1 | 26.4 | 25.8 | 34.5 | 13.3 | 24.7 | 28.6 | > 100 | 30.7 | – | – | – | – | – | – | – | – | – |
| c1csc(-c2c3ccc(=[N+]4CCCCC4)cc-3oc3cc(N4CCCCC4)ccc23)c1 | 0.276 | – | – | 0.215 | 0.199 | – | – | – | 0.547 | 0.32 | 0.141 | 0.0776 | 0.0648 | 0.145 | 0.135 | – | – | – | – |
| Cc1cc2nc(-c3cc(C(C)(C)C)c(O)c(C(C)(C)C)c3)[nH]c2cc1C | > 100 | > 100 | > 28.8 | > 100 | > 100 | 13.5 | > 23.3 | > 100 | > 100 | > 100 | – | – | – | – | – | – | – | – | – |
| CC12CC1C(c1cccc([N+](=O)[O-])c1)(c1cccc([N+](=O)[O-])c1)N=N2 (stereo unspecified) | > 100 | 44 | 47.3 | > 100 | > 100 | > 100 | 80.3 | > 100 | 45.8 | 45.8 | – | – | – | – | – | – | – | – | – |
| COc1ccc(/C=N/N2C(=O)c3c(N)c(C#N)c(-c4ccccc4)c(-c4ccccc4)c3C2=O)cc1 | > 100 | > 100 | > 100 | > 100 | – | > 100 | > 100 | > 100 | > 100 | > 100 | – | – | – | – | – | – | – | – | – |
| C=C(C)[C@@]1(O[Si](C)(C)C)CCCC[C@@H]1CC(Sc1ccccc1)Sc1ccccc1 | 34.8 | 28.6 | 23.8 | 31.3 | 27.5 | 30.2 | 26.2 | 27.7 | 40.8 | – | – | – | – | – | – | – | – | – | – |
| O=C([CH-]C(=O)c1ccccc1)c1ccccc1.O=C([CH-]C(=O)c1ccccc1)c1ccccc1.[O]=[U+2]=[O] | 9.12 | 11.1 | – | 6.42 | – | > 100 | 14 | 4.79 | – | – | 2.77 | 2.35 | – | – | – | 2.78 | 3.15 | 2.42 | 1.81 |
| O=c1n(Cc2ccccc2)c(=O)n2c(=O)n(Cc3ccccc3)c(=O)n12 | > 100 | > 100 | > 100 | – | – | > 100 | > 100 | – | > 100 | > 100 | – | – | – | – | – | – | – | – | – |
| Cc1cc(/N=C/c2ccc(C#N)cc2)n(-c2ccccc2)n1 | > 100 | > 100 | > 100 | > 100 | > 100 | > 100 | > 100 | > 100 | 76.6 | > 100 | – | – | – | – | – | – | – | – | – |
| Clc1ccc(Cl)c(SCCCN2CCNCC2)c1 | 33.1 | 40.7 | 86.1 | 35.3 | 41.7 | 56.7 | 47.9 | 47.4 | 40.3 | 33.6 | – | – | – | – | – | – | – | – | – |
| COc1cc2c(c(O)c1O)-c1ccc(OC)c(=O)cc1C(NC(C)=O)CC2 (stereo unspecified) | 16.2 | > 100 | 25.7 | > 100 | > 100 | 51.6 | > 84.2 | 8.3 | 5.29 | – | – | – | – | – | – | – | – | – | – |
| S=C1CC(c2ccccc2)Sc2ccc(Cl)cc2N1 (stereo unspecified) | > 100 | > 100 | > 100 | > 100 | > 100 | – | > 100 | > 100 | > 100 | > 100 | – | – | – | – | – | – | – | – | – |
| O=C1CCCc2cc3c(cc21)CC1(C3)Cc2ccc3c(c2C1)C(=O)CCC3 (stereo unspecified) | 7.66 | > 100 | 37.9 | 36.3 | > 100 | > 100 | > 100 | 69.9 | 27.7 | – | – | – | – | – | – | – | – | – | – |
| Cc1ccc(-c2c(C#N)c(-c3ccc([N+](=O)[O-])cc3)c(C#N)c(=O)n2NS(=O)(=O)c2ccccc2)cc1 | 26.9 | > 100 | > 100 | > 100 | > 100 | > 100 | > 100 | – | – | 94.9 | – | – | – | – | – | – | – | – | – |
| CC(C)(C)OC(=O)n1c(-c2ccccc2F)cc(=O)c2cc3c(cc21)OCO3 | 1.2 | > 31.9 | – | > 100 | > 100 | > 100 | > 100 | > 100 | – | > 100 | – | – | – | – | – | – | – | – | – |
| O=[N+]([O-])c1ccc(C2=Nc3ccccc3SC(c3ccccc3)C2)cc1 (stereo unspecified) | 32.9 | 30.9 | 32.2 | 36.3 | 58.5 | 27.8 | 27.3 | – | 40 | – | – | – | – | – | – | – | – | – | – |
| COC(=O)[C@H](C)NC(=O)[C@H](CSC)N1C(=O)N[C@@H](C(C)C)C1=O | > 100 | > 100 | > 100 | > 100 | > 100 | > 100 | > 100 | > 100 | – | > 100 | – | – | – | – | – | – | – | – | – |
| CC1=CC(=O)C(C(O)(C(F)(F)F)C(F)(F)F)C(C)(C)C1 (stereo unspecified) | > 10 | > 10 | > 10 | > 10 | > 10 | > 10 | > 10 | > 10 | > 10 | – | – | – | – | – | – | – | – | – | – |
| O=C(c1ccccc1)N1C(=S)N=C(Nc2ccccc2)C1=Nc1ccccc1 | > 100 | > 100 | > 100 | – | > 100 | > 100 | > 100 | – | > 100 | – | – | – | – | – | – | – | – | – | – |
| C[C@]12CC[C@H](O)C=C1CC[C@@H]1[C@@H]2CC[C@]2(C)C(c3ccc(=O)oc3)CC[C@]12O (stereo partly specified) | 0.0163 | 0.0803 | 0.129 | – | 0.0269 | 0.362 | 0.0356 | 0.018 | < 0.0125 | – | – | – | – | – | – | – | – | – | – |
